According to patent publication US10172962B2, “Macromolecular delivery systems for non-invasive imaging, evaluation and treatment of arthritis and other inflammatory diseases” (University of Utah Research Foundation, priority 2004, dated 2019):

What was measured:
Assay type in all cases: in vivo, rat
AIA rats [1] = test: Treatment of AIA rats: bone mineral density by peripheral dual x-ray absorptiometry; conditions: 7/group, FIG. 8
Protocol: The bone mineral density (BMD) of the bones in the arthritic joints was measured by peripheral dual x-ray absorptiometry (pDXA, Norland Medical Systems) adapted for small animals. For this the intact hind limbs were used and the scan region included the ankle and foot bones. The coefficient of variation between measurements was less than 1%.
One of the significant impacts of rheumatoid arthritis inflammation is the damage to the bone in the joints, which is evident in FIG. 8 of the animals with no treatment (saline). […] However, such improvement can be greatly strengthened if Dex is conjugated to HPMA copolymer. […] A more dynamic factor to consider in the bone metabolism is the extent of bone erosion. The bone eroded surface directly correlates with the recruitment and activity of osteoclasts, which are the cells responsible for bone resorption and the development of bone damage. In FIG. 9, the bone erosion surface data for all the treatment groups is summarized. […] The histology analysis of the arthritic joints with different treatments also confirmed the superiority of the P-Dex treatment (FIG. 10).

AIA rats [2] = test: Treatment of AIA rats: ankle joint swelling (caliper diameter)
Protocol: (§1) Male Lewis rats (175-200 g) were obtained from Charles River Laboratories (Portage, Mich.) and allowed to acclimate for at least one week. To induce arthritis, Mycobacterium Tuberculosis H37Ra (1 mg) and LA (5 mg) were mixed in paraffin oil (100 μL), sonicated and s.c. injected into the base of the rat's tail (20). The rats were then randomized into 3 rats/group. The progression of the joint inflammation was followed by measuring the diameter of the ankle joint with calipers. Special care was given to the rats as the inflammation developed to ensure availability and access to water and food. The MRI contrast agents used for the study were injected directly into the jugular vein while the animal was anesthetized with Ketamine and Xylazine.
. Hydrazine was used as the targeting moiety, as it may bind to negative charged moieties on cartilage. The anti-arthritic drug, dexamethasone, was linked to the polymer backbone (P-Dex) via a pH sensitive hydrozone bond as illustrated in FIG. 6. The polymer with the hydrazine and dexamethasone attached was then injected into AIA rats (4/group) on day 13 after the induction of arthritis. A single dose of 10 mg (P-Dex)/kg was given. […]

healthy rats = test: Evans blue dye injection in healthy control rats; conditions: EB 10 mg/kg tail vein
Protocol: (§2) Evans blue dye (EB, 10 mg/kg in saline) was injected into healthy and AIA rats via the tail vein. The extravasation and accumulation of dye in the areas of joint inflammation could be visually observed as appearance of the blue pigment. Photographs of the ankle and paws were taken before and 8 hours after injection.
For this experiment, EB was injected into the rats 15 days after injection of the adjuvant. By this time, there is a robust inflammatory reaction evident in the ankle joints. […] Some deep blue spots were also observed on some digits of the paw. Photographs taken before and after injection of the EB dye confirm that the areas with dye accumulation correspond to those with marked inflammation.

AIA rats [3] = test: Visualization of plasma albumin accumulation with Evans blue dye in AIA rats
Protocol: as §1, §2
For this experiment, EB was injected into the rats 15 days after injection of the adjuvant. By this time, there is a robust inflammatory reaction evident in the ankle joints. […] Some deep blue spots were also observed on some digits of the paw. […]

C[C@@H]1C[C@H]2[C@@H]3CCC4=CC(=O)C=C[C@]4(C)[C@@]3(F)[C@@H](O)C[C@]2(C)[C@@]1(O)C(=O)COP(=O)(O)O [Dex, Dexamethasone sodium phosphate]
bone mineral density (BMD) / bone preservation of the arthritic joints (AIA rats [1]): can slow bone erosion | ankle joint swelling after the injections on day 13 (AIA rats [2]; P-Dex single dose 10 mg/kg day 13, Dex same dose divided in 4 daily doses day 13-16): dramatic decrease of ankle joint swelling | course of inflammation after cessation of the daily Dex injections (AIA rats [2]; P-Dex single dose day 13, Dex 4 daily doses day 13-16): the inflammation rapidly got worse

Cc1cc(-c2ccc(/N=N/c3ccc4c(S(=O)(=O)O)cc(S(=O)(=O)O)c(N)c4c3O)c(C)c2)ccc1/N=N/c1ccc2c(S(=O)(=O)O)cc(S(=O)(=O)O)c(N)c2c1O [EB, Evans blue]
localization of dye to joint areas (healthy rats): the dye was not localized to joint areas | accumulation of dye in inflamed paws (AIA rats [3]; AIA rats, EB 10 mg/kg tail vein, 15 days after adjuvant): gradual accumulation of blue color in the inflamed hind paw and front paws | nonspecific transfer of dye to other tissues (AIA rats [3]; organs including liver and heart): a slight blue staining was evident in some organs
